Data from patent US20230226092A1, “CANCER […] ON G[…]” (NuCana plc, priority 2015, published 2023).
Entries after “also recorded” stand apart in the source; their conditions may differ.

Tests used:
[1] = test system: primary acute myeloid leukaemia (AML) blasts; experiment: In vitro cytotoxicity assay (annexin V apoptosis) in primary acute myeloid leukemia cells; assay type: cell-based, human
Procedure: NUC-1031 was assayed for its cytotoxic effects on primary cultures of acute myeloid leukaemia (AML) blasts. LD50 values (the concentration required to kill 50% of the tumour cells in culture) were calculated in respect of NUC-1031 and gemcitabine.
Bone marrow samples were collected in ethylenediaminetetraacetic acid (EDTA) from newly diagnosed, previously untreated, acute myeloid leukemia (AML) patients. AML blasts were enriched by density gradient centrifugation using Histopaque (Sigma, Poole, UK) and were subsequently maintained in Roswell Park Memorial Institute medium (RPMI) supplemented with 10% foetal bovine serum (FBS). Cells were treated with Gemcitabine or NUC-1031 at concentrations between 0.25 µM and 10 µM, and incubated for 48h. All cultures were maintained at 37° C. in a 5% CO2 humidified atmosphere.
Cells were harvested and labelled with CD34-fluorescein isothiocyanate (FITC) (BD Biosciences, Buckingham, UK) and then resuspended in 200 µl of binding buffer containing 4µl of annexin V labelled with allophycocyanin (APC) (eBioscience Ltd, Hatfield, UK). Apoptosis was quantified in the CD34^+ AML cells using an Accuri C6 flow cytometer (Becton Dickinson, CA, USA). At least 10,000 events were acquired and data were subsequently analysed using FlowJo software (Tree Star Inc., Ashland, OR, USA). All LD50 values (concentration of drug required to kill 50% of cells) were derived from the dose-response curves.

[2] = ProGem1 dose escalation clinical study: safety and tolerability; assay type: in vivo, human
Procedure: Although the primary objectives of the dose escalation part of the study were to determine the Recommended Phase II Dose (RP2D) and safety profile, secondary objectives included determining the PK profile, however effective treatment of patients with a range of refractory cancers has also been observed as part of this study.
NUC-1031 was administered as a 5 to 30 minute intravenous slow bolus injection. • Schedule A: NUC-1031 was administered on days 1, 8, 15 of a 4 weekly Cycle. • Schedule B: NUC-1031 was administered on days 1, 5, 8, 12, 15, 19, of a 4 weekly Cycle.

[3] = test system: CD34^+/CD123^+ leukaemic stem cells; experiment: Quantification of CD34+/CD123+ sub-populations in primary AML cells; assay type: cell-based, human
Procedure: Putative leukaemic stem cells were identified by dual expression of CD34 and CD123. The relative sensitivity of these cells to the effects of gemcitabine and NUC-1031 were assessed as a function of the percentage of these cells that remained viable following exposure to molar equivalents of each agent.

[4] = test system: Lin^-/CD34^+/CD38^-/CD123^+ CSCs of KG1a cells; experiment: Immunophenotypic identification of the leukaemic stem cell compartment in KG1a; assay type: cell-based, human; settings: 72 h, sub-micromolar concentrations
Procedure: (§1) KG1a cells were cultured for 72 hours in the presence of a wide range of concentrations of each nucleoside analogue and their respective ProTides. Cells were then harvested and labelled with a cocktail of anti-lineage antibodies (PE-cy7), anti-CD34 (FITC), anti-CD38 (PE) and anti-CD123 (PERCP cy5). The sub-population expressing a leukaemic stem cell (LSC) phenotype were subsequently identified and were expressed as a percentage of all viable cells left in the culture. The percentages of stem cells remaining were then plotted on a dose-response graph and the effects of the ProTides were compared with the parental nucleoside.
as §1, with “compound assayed.” for “nucleoside analogue and their respective ProTides.”, “CSC” for “leukaemic stem cell (LSC)”, “CSCs” for “stem cells”, “NUC-1031 (and its purified isomers)” for “ProTides”, “gemcitabline.” for “the parental nucleoside.”

For “gemcitabine-[phenyl-benzoxy-L-alaninyl)]-phosphate [NUC-1031]”, the “cytotoxic potency on CSCs and non-stem cancer cells compared with gemcitabine” value ([1]; AML blast cultures) was “increased potency”, the “mean LD50” value ([1]; primary AML blasts, CD34+ cells, 48h, annexin V) was 1.6 µM and the “Adverse events (grade) / tolerability” value ([2]; Patient 004, breast cancer, 500 mg/m^2 weekly) was “tolerated treatment well”. For the same substance, the “Adverse events (grade) / tolerability” value ([2]; Patient 005, ovarian cancer, 500 mg/m^2 weekly) was “tolerated treatment well”, the “Adverse events (grade) / tolerability” value ([2]; Patient 007, colorectal cancer, possible linked to splenomegaly at baseline) was “thrombocytopaenia (G3)” and the “Adverse events (grade) / tolerability” value ([2]; Patient 008, cancer of unknown primary, 375 mg/m^2 twice weekly, pleural effusion unlikely related to study drug) was “transient (G3) transaminitis (ALT and AST); also recorded: pleural effusion (G3)”. The “Adverse events (grade) / tolerability” value ([2]; Patient 010, endometrial cancer, neutropenia in Cycle 1 at 750 mg/m^2) was “neutropenia (G3); also recorded: transient Grade 3 anaemia”, the “Adverse events (grade) / tolerability” value ([2]; Patient 011, uterine carcinosarcoma, 375 mg/m^2 twice weekly) was “transient neutropaenia (G3); also recorded: low haemoglobin (G2)” and the “Adverse events (grade) / tolerability” value ([2]; Patient 012, cholangiocarcinoma) was “tolerated treatment well”. For the same substance, the “Adverse events (grade) / tolerability” value ([2]; Patient 015, cancer of unknown primary, Cycle 1 Day 8) was “thrombocytopenia (G3); also recorded: lymphopenia (G3); also recorded: neutropenia (G2)”, the “Adverse events (grade) / tolerability” value ([2]; Patient 017, lung cancer) was “tolerated NUC-1031 well” and the “Adverse events (grade) / tolerability” value ([2]; Patient 021, fallopian tube cancer, 625 mg/m^2 weekly) was “tolerated NUC-1031 well”. The “Adverse events (grade) / tolerability” value ([2]; Patient 027, ovarian cancer, ALT after Cycle 1 Day 1 at 725 mg/m^2, a DLT) was “elevated ALT (G3); also recorded: mild neutropenia”, the ALT ([2]; Patient 027, ovarian cancer, day 7, from 96 at baseline) was 256 and the “Adverse events (grade) / tolerability” value ([2]; Patient 030, ovarian cancer, 725 mg/m^2 weekly) was “tolerated study drug well”. The “Adverse events (grade) / tolerability” value ([2]; Patient 036, renal carcinoma, 825 mg/m^2 weekly, thrombocytopenia following Cycle 5 Day 1) was “thrombocytopenia (G3); also recorded: tolerating NUC-1031 much better than their previous regimen”, the “Adverse events (grade) / tolerability” value ([2]; Patient 037, pancreatic cancer, 1,000, then 900 mg/m^2 weekly) was “loss of appetite, severe fatigue” and the “Adverse events (grade) / tolerability” value ([2]; Patient 038, ovarian cancer, 900 mg/m^2 weekly, main toxicity, days 3 to 4) was “delayed onset fatigue”. For the same substance, the “Adverse events (grade) / tolerability” value ([2]; Patient 040, cholangiocarcinoma, source was a stent blocked with tumour and a biliary tract cyst) was “infection (G3)”, the “Adverse events (grade) / tolerability” value ([2]; Patient 041, breast cancer, 900 mg/m^2 weekly, fatigue during Cycle 3, neutropenia after Cycle 1 Day 8 and Day 15) was “fatigue (G3); also recorded: neutropenia” and the “Adverse events (grade) / tolerability” value ([2]; Patient 042, cholangiocarcinoma, 900 mg/m^2 weekly, days 3-5) was “delayed onset fatigue (G2)”. For the same substance, the “Adverse events (grade) / tolerability” value ([2]; Patient 043, ovarian cancer, 900 mg/m^2 weekly, fatigue on days 4 and 5) was “delayed onset fatigue (G2); also recorded: Leg oedema developed to G3”, the “Adverse events (grade) / tolerability” value ([2]; Patient 044, lung cancer, 900, then 825 mg/m^2 weekly) was “G3 lung infection; also recorded: thrombocytopenia” and the “Adverse events (grade) / tolerability” value ([2]; Patient 046, adrenal carcinoma, all G3 events in Cycle 1 at 1,000 mg/m^2, fatigue (G3) and neutropenia (G2) following Cycle 8 D1) was “delayed onset fatigue, nausea and vomiting (all G3); also recorded: neutropenia (G2)”. For the same substance, the “Adverse events (grade) / tolerability” value ([2]; Patient 048, ovarian cancer, ALT, AST, neutropaenia (G2), ALP following Cycle 1 Day 1 at 1,000 mg/m^2, neutropenia (G3) in Cycle 4) was “ALT, (G3, a DLT); also recorded: AST and neutropaenia (G2); also recorded: ALP (G1); also recorded: neutropenia (G3); also recorded: diarrhoea following each dose”, the “Adverse events (grade) / tolerability” value ([2]; Patient 050 (202), oesophageal cancer, following Cycle 1 Day 1 at 900 mg/m^2) was “ALT and fatigue, both G3” and the “Adverse events (grade) / tolerability” value ([2]; Patient 051 (203), anal cancer, 900 mg/m^2 weekly) was “tolerated treatment well”. For the same substance, the “Adverse events (grade) / tolerability” value ([2]; Patient 055 (207), ovarian cancer, 825 mg/m^2 weekly) was “nausea and vomiting post chemotherapy”, the “Adverse events (grade) / tolerability” value ([2]; Patient 057 (209), ovarian cancer, Cycle 1 Day 15, 900 mg/m^2 weekly) was “anaemia and ascites both G3” and the “Adverse events (grade) / tolerability” value ([2]; Patient 058 (210), lung cancer, Cycle 1 at 825 mg/m^2, may be partly due to a congenital liver condition) was “G3 transaminitis (ALT), a DLT”. For the same substance, the “Adverse events (grade) / tolerability” value ([2]; Patient 059 (211), cervical cancer, thrombocytopenia in Cycle 1 at 825 mg/m^2, fatigue during Cycle 3) was “thrombocytopenia (G3); also recorded: fatigue (G3)”, the “Adverse events (grade) / tolerability” value ([2]; Patient 060 (212), pancreatic cancer, 825 mg/m^2 weekly, required new stent) was “ALP, AST, ALT, all G3” and the “Adverse events (grade) / tolerability” value ([2]; Patient 061 (213), colorectal cancer, 825 mg/m^2 weekly) was “no nausea or vomiting during treatment”. For the same substance, the “Adverse events (grade) / tolerability” value ([2]; Patient 063 (215), ovarian cancer, fatigue on Cycle 3) was “fatigue (G3); also recorded: anaemia and neutropenia”, the “Adverse events (grade) / tolerability” value ([2]; Patient 067 (219), osteosarcoma, 825 mg/m^2 weekly, neutropenia towards the end of each Cycle) was “neutropenia G2; also recorded: Tolerated study drug well” and the “Adverse events (grade) / tolerability” value ([2]; Patient 069 (221), colorectal cancer, G4/G3 during Cycle 3 at 825 mg/m^2, G3 following Cycle 4 D1 at 750, G2 at C5 D8) was “neutropenia (G4); also recorded: neutropenia and leukopenia, G3; also recorded: neutropenia and leukopenia, G2”. The “CD34^+/CD123^+ leukaemic stem cell viability as compared to gemcitabine” value ([3]; 1 µM and 2.5 µM) was “significant reductions”, the “depletion of CSCs (CD34^+/CD123^+ cells) compared with gemcitabine” value ([3]; AML blast cultures, micromolar concentrations) was “enhanced ability to deplete CSCs; also recorded: preferentially depletes CD34^+/CD123^+ cells” and the “targeting of CSCs compared with Gemcitabine” value [4] was “preferential targeting of CSCs”.
